According to US6537948B1, “Uracil compounds and use thereof” (Sumitomo Chemical Company, Limited, priority 2000, dated 2003):

Key:
[1] = tested on: ivyleaf morningglory (Ipomoea hederacea); assay: Test Example 1: foliar treatment of field; format: in vivo; conditions: foliar spray, dosage 125 g/ha, 16 days after application
Method: (§1) A cylindrical plastic pot having a diameter of 10 cm and a depth of 10 cm was filled with soil and then seeded with ivyleaf morningglory (Ipomoea hederacea) and velvetleaf (Abutilon theophrasti). These test plants were grown in a greenhouse for 10 days. Then, each of compounds 1-2, 1-42, 1-45, 1-48, 2-2, 2-7, 2-42, 2-45, 3-2, 3-12, 4-7, 4-85, 5-12-R, 5-12-S, 5-17, 6-2, 7-2, 7-6, 7-8, 7-12, 7-48, 7-50, 7-84, 7-118, 7-119, 7-125, 9-7, 9-27 and 9-45 was formulated into an emulsifiable concentrate according to Formulation Example 2 and then diluted to the prescribed amount with water containing a spreading agent and the dilution was uniformly sprayed over the foliage of the test plants with a sprayer at a rate of 1000 liters per hectare. After the application, the test plants were grown in the greenhouse for 16 days, and the herbicidal activity was determined.

[2] = tested on: velvetleaf (Abutilon theophrasti); assay: Test Example 1: foliar treatment of field; format: in vivo; conditions: foliar spray, dosage 125 g/ha, 16 days after application
Method: as §1

[3] = tested on: ivyleaf morningglory (Ipomoea hederacea); assay: Test Example 2: soil surface treatment of field; format: in vivo; conditions: soil surface spray, dosage 500 g/ha, 19 days after application
Excerpt: (§2) A cylindrical plastic pot having a diameter of 10 cm and a depth of 10 cm was filled with soil and then seeded with ivyleaf morningglory (Ipomoea hederacea) and velvetleaf (Abutilon theophrasti). Then, each of the compounds 1-2, 1-42, 1-48, 2-2, 2-7, 2-42, 2-45, 3-2, 3-12, 4-7, 4-85, 5-12-R, 5-12-S, 5-17, 6-2, 7-2, 7-6, 7-8, 7-12, 7-48, 7-50, 7-84, 7-118, 7-119, 7-125, 9-7, 9-27 and 9-45 was formulated into an emulsifiable concentrate according to Formulation Example 2 and then diluted to the prescribed amount with water, and the dilution was uniformly sprayed over the surface of the soil with a sprayer at a rate of 1000 liters per hectare. After the application, the test plants were grown in the greenhouse for 19 days, and the herbicidal activity was examined.

[4] = tested on: velvetleaf (Abutilon theophrasti); assay: Test Example 2: soil surface treatment of field; format: in vivo; conditions: soil surface spray, dosage 500 g/ha, 19 days after application
Excerpt: as §2

Compound	growth of ivyleaf morningglory (herbicidal activity) [1]	growth of velvetleaf (herbicidal activity) [2]	growth of ivyleaf morningglory (herbicidal activity) [3]	growth of velvetleaf (herbicidal activity) [4]	melting point
COC(=O)COc1ncncc1Oc1cc(-n2c(=O)cc(C(F)(F)F)n(C)c2=O)c(F)cc1Cl [Compound 4-7, 5-{2-chloro-4-fluoro-5-[3-methyl-2,6-dioxo-4-(trifluoromethyl)-1,2,3,6-tetrahydropyrimidin-1-yl]phenoxy}-4-(methoxycarbonyl)methoxypyrimidine]	completely controlled	completely controlled	completely controlled	completely controlled	52.5 °C
COC(=O)C(C)Oc1cc(OC)nc(Oc2cc(-n3c(=O)cc(C(F)(F)F)n(C)c3=O)c(F)cc2Cl)n1 (centres unmarked) [Compound 1-42, 2-{2-chloro-4-fluoro-5-[3-methyl-2,6-dioxo-4-(trifluoromethyl)-1,2,3,6-tetrahydropyrimidin-1-yl]phenoxy}-6-methoxy-4-{1-(methoxycarbonyl)ethoxy}pyrimidine]	completely controlled	completely controlled	completely controlled	completely controlled	71.2 °C
COC(=O)COc1ncccc1Oc1cc(-n2c(=O)cc(C(F)(F)F)n(C)c2=O)c(F)cc1Br [Compound 9-7, 3-{2-bromo-4-fluoro-5-[3-methyl-2,6-dioxo-4-(trifluoromethyl)-1,2,3,6-tetrahydropyrimidin-1-yl]phenoxy}-2-(methoxycarbonyl)methoxypyridine]	completely controlled	completely controlled	completely controlled	completely controlled	
COC(=O)COc1cccnc1Oc1cc(-n2c(=O)cc(C(F)(F)F)n(C)c2=O)c(F)cc1Cl [Compound 2-7, 2-{2-chloro-4-fluoro-5-[3-methyl-2,6-dioxo-4-(trifluoromethyl)-1,2,3,6-tetrahydropyrimidin-1-yl]phenoxy}-3-(methoxycarbonyl)methoxypyridine]	completely controlled	completely controlled	completely controlled	completely controlled	
CCCOC(=O)COc1ncccc1Oc1cc(-n2c(=O)cc(C(F)(F)F)n(C)c2=O)c(F)cc1Cl [Compound 7-48, 3-{2-chloro-4-fluoro-5-[3-methyl-2,6-dioxo-4-(trifluoromethyl)-1,2,3,6-tetrahydropyrimidin-1-yl]phenoxy}-2-(n-propoxycarbonyl)methoxypyridine]	completely controlled	completely controlled	completely controlled	completely controlled	
CC(C)=NOC(=O)COc1ncccc1Oc1cc(-n2c(=O)cc(C(F)(F)F)n(C)c2=O)c(F)cc1Cl [Compound 7-118, 3-{2-chloro-4-fluoro-5-[3-methyl-2,6-dioxo-4-(trifluoromethyl)-1,2,3,6-tetrahydropyrimidin-1-yl]phenoxy}-2-isopropylidenaminoxycarbonylmethoxypyridine]	completely controlled	completely controlled	completely controlled	completely controlled	
COC(=O)C(C)Oc1cccc(Oc2cc(-n3c(=O)cc(C(F)(F)F)n(C)c3=O)c(F)cc2Cl)n1 (centres unmarked) [Compound 2-42, 2-{2-chloro-4-fluoro-5-[3-methyl-2,6-dioxo-4-(trifluoromethyl)-1,2,3,6-tetrahydropyrimidin-1-yl]phenoxy}-6-{1-(methoxycarbonyl)ethoxy}pyridine]	completely controlled	completely controlled	completely controlled	completely controlled	
Cn1c(C(F)(F)F)cc(=O)n(-c2cc(Oc3cccnc3OCC(=O)OC3CCCC3)c(Cl)cc2F)c1=O [Compound 7-125, 3-{2-chloro-4-fluoro-5-[3-methyl-2,6-dioxo-4-(trifluoromethyl)-1,2,3,6-tetrahydropyrimidin-1-yl]phenoxy}-2-(c-pentyloxycarbonyl)methoxypyridine]	completely controlled	completely controlled	completely controlled	completely controlled	
CCCCCOC(=O)COc1ncccc1Oc1cc(-n2c(=O)cc(C(F)(F)F)n(C)c2=O)c(F)cc1Cl [Compound 7-50, 3-{2-chloro-4-fluoro-5-[3-methyl-2,6-dioxo-4-(trifluoromethyl)-1,2,3,6-tetrahydropyrimidin-1-yl]phenoxy}-2-(n-pentyloxycarbonyl)methoxypyridine]	completely controlled	completely controlled	completely controlled	completely controlled	
COC(=O)COc1cncnc1Oc1cc(-n2c(=O)cc(C(F)(F)F)n(C)c2=O)c(F)cc1Cl [Compound 3-57, 4-{2-chloro-4-fluoro-5-[3-methyl-2,6-dioxo-4-(trifluoromethyl)-1,2,3,6-tetrahydropyrimidin-1-yl]phenoxy}-5-(methoxycarbonyl)methoxypyrimidine]					62.5 °C
COC(=O)C(C)Oc1ccnc(Sc2cc(-n3c(=O)cc(C(F)(F)F)n(C)c3=O)c(F)cc2Cl)n1 (centres unmarked) [Compound 6-2, methyl 2-([2-{2-chloro-4-fluoro-5-[3-methyl-2,6-dioxo-4-(trifluoromethyl)-1,2,3,6-tetrahydropyrimidin-1-yl]phenylthio}pyrimidin-4-yl]oxy}propionate]	completely controlled	completely controlled	completely controlled	completely controlled	60.2 °C
COC(=O)COc1ncccc1Oc1cc(-n2c(=O)cc(C(F)(F)F)n(C)c2=O)c(F)cc1C#N [Compound 9-27, 3-{2-cyano-4-fluoro-5-[3-methyl-2,6-dioxo-4-(trifluoromethyl)-1,2,3,6-tetrahydropyrimidin-1-yl]phenoxy}-2-(methoxycarbonyl)methoxypyridine]	completely controlled	completely controlled	completely controlled	completely controlled	173.1 °C
COC(=O)C(C)Oc1cccnc1Oc1cc(-n2c(=O)cc(C(F)(F)F)n(C)c2=O)c(F)cc1Cl (centres unmarked) [Compound 2-2, 2-{2-chloro-4-fluoro-5-[3-methyl-2,6-dioxo-4-(trifluoromethyl)-1,2,3,6-tetrahydropyrimidin-1-yl]phenoxy}-3-{1-(methoxycarbonyl)ethoxy}pyridine]	completely controlled	completely controlled	completely controlled	completely controlled	
